Test results as given in ChEMBL document CHEMBL1165867, “Synthesis, structure and structure-activity relationship analysis of caffeic acid amides as potential antimicrobials” (2010).
Values after ≈ are worked out from the molar mass of the structure shown.

Assays:
Test in all cases: microbe, parasite or virus in culture
Format in all cases: functional
[1] = system: Bacillus subtilis; conditions: ATCC 6633, 24 h
Description: Antibacterial activity against Bacillus subtilis ATCC 6633 after 24 hrs by MTT assay

[2] = system: Pseudomonas fluorescens; conditions: ATCC 13525, 24 h
Description: Antibacterial activity against Pseudomonas fluorescens ATCC 13525 after 24 hrs by MTT assay

[3] = system: Staphylococcus aureus; conditions: ATCC 6538, 24 h
Description: Antibacterial activity against Staphylococcus aureus ATCC 6538 after 24 hrs by MTT assay

[4] = system: Candida albicans; conditions: ATCC 10231, 48 h
Description: Antifungal activity against Candida albicans ATCC 10231 after 48 hrs by MTT assay

[5] = system: Escherichia coli; conditions: ATCC 35218, 24 h
Description: Antibacterial activity against Escherichia coli ATCC 35218 after 24 hrs by MTT assay

[6] = system: Aspergillus niger; conditions: ATCC 16404, 48 h
Description: Antifungal activity against Aspergillus niger ATCC 16404 after 48 hrs by MTT assay

[7] = system: Trichophyton rubrum; conditions: ATCC 10218, 48 h
Description: Antifungal activity against Trichophyton rubrum ATCC 10218 after 48 hrs by MTT assay

Row | Structure (SMILES) | MIC [1] [µg/mL] | MIC [2] [µg/mL] | MIC [3] [µg/mL] | MIC [4] [µg/mL] | MIC [5] [µg/mL] | MIC [6] [µg/mL] | MIC [7] [µg/mL]
1 | Cc1ccccc1NC(=O)/C=C/c1ccc(O)c(O)c1 | 35 (≈ 130 µM) | 42.5 (≈ 158 µM) | > 50 | > 50 |  |  | 
2 | CN(C(=O)/C=C/c1ccc(O)c(O)c1)c1ccccc1 | > 50 | > 50 | > 50 | > 50 |  |  | 
3 | CCNC(=O)/C=C/c1ccc(O)cc1 | > 50 | > 50 | 45.4 (≈ 237 µM) | 50 (≈ 261 µM) |  |  | 
4 | O=C(/C=C/c1ccc(O)c(O)c1)Nc1ccccc1 | 28.4 (≈ 111 µM) | > 50 | 41.5 (≈ 163 µM) | 50 (≈ 196 µM) |  |  | 
5 | O=C(/C=C/c1ccc(O)c(O)c1)Nc1ccccc1Br | 49.5 (≈ 148 µM) | 42.2 (≈ 126 µM) | > 50 | 27.5 (≈ 82.3 µM) |  |  | 
6 | O=C(/C=C/c1ccc(O)c(O)c1)N(c1ccccc1)c1ccccc1 | > 50 | > 50 | > 50 | > 50 |  |  | 
7 | COc1ccccc1NC(=O)/C=C/c1ccc(O)c(O)c1 | 39.8 (≈ 140 µM) | 13.2 (≈ 46.3 µM) | 47.4 (≈ 166 µM) | > 50 |  |  | 
8 | O=C(/C=C/c1ccc(O)c(O)c1)Nc1ccccc1F | 50 (≈ 183 µM) | > 50 | > 50 | 33.3 (≈ 122 µM) |  |  | 
9 | CCNC(=O)/C=C/c1ccc(O)c(O)c1 | > 50 | > 50 | > 50 | > 50 |  |  | 
10 | CCN(CC)C(=O)/C=C/c1ccc(O)c(O)c1 | > 50 | > 50 | > 50 | > 50 |  |  | 
11 | O=C(/C=C/c1ccc(O)c(O)c1)Nc1ccccc1Cl | 45.8 (≈ 158 µM) | 41.2 (≈ 142 µM) | > 50 | 42.8 (≈ 148 µM) |  |  | 
12 | COc1cccc(NC(=O)/C=C/c2ccc(O)c(O)c2)c1 | 50 (≈ 175 µM) | > 50 | > 50 | 44.7 (≈ 157 µM) |  |  | 
13 | Cc1cccc(NC(=O)/C=C/c2ccc(O)c(O)c2)c1 | 40.2 (≈ 149 µM) | 38.8 (≈ 144 µM) | 45.6 (≈ 169 µM) | > 50 |  |  | 
14 | O=C(/C=C/c1ccc(O)c(O)c1)Nc1ccccc1[N+](=O)[O-] | > 50 | > 50 | > 50 | > 50 |  |  | 
15 | O=C(/C=C/c1ccc(O)c(O)c1)Nc1cccc(Cl)c1 | 50 (≈ 173 µM) | > 50 | 49.2 (≈ 170 µM) | > 50 |  |  | 
16 | O=C(/C=C/c1ccc(O)c(O)c1)Nc1cccc(F)c1 | 46.7 (≈ 171 µM) | > 50 | > 50 | > 50 |  |  | 
17 | O=C(O)/C=C/c1ccc(O)c(O)c1 [CAFFEIC ACID] | > 50 | > 50 | > 50 | > 50 |  |  | 
18 | O=C(O)/C=C/c1ccc(O)cc1 [COUMARIC ACID] | > 50 | > 50 | > 50 | > 50 |  |  | 
19 | O=C(/C=C/c1ccc(O)c(O)c1)Nc1cccc([N+](=O)[O-])c1 | > 50 | > 50 | > 50 | > 50 |  |  | 
20 | O=C(/C=C/c1ccc(O)c(O)c1)Nc1cccc(Br)c1 | 50 (≈ 150 µM) | > 50 | > 50 | > 50 |  |  | 

Stronger by MIC [1], values ahead:

Row | MIC [1] [µg/mL] | MIC [2] [µg/mL] | MIC [3] [µg/mL] | MIC [4] [µg/mL] | MIC [5] [µg/mL] | MIC [6] [µg/mL] | MIC [7] [µg/mL] | Structure (SMILES)
21 | 6.25 (≈ 21.6 µM) | 50 (≈ 173 µM) | 46.8 (≈ 162 µM) | > 50 | > 50 | > 50 | > 50 | O=C(/C=C/c1ccc(O)c(O)c1)Nc1ccc(Cl)cc1
22 | 3.12 (≈ 10.9 µM) | > 50 | 50 (≈ 175 µM) | 42.8 (≈ 150 µM) | > 50 | > 50 | > 50 | COc1ccc(NC(=O)/C=C/c2ccc(O)c(O)c2)cc1
23 | 0.78 (≈ 2.33 µM) |  | 1.39 (≈ 4.16 µM) |  |  |  |  | CC1(C)S[C@@H]2[C@H](NC(=O)Cc3ccccc3)C(=O)N2[C@H]1C(=O)O [PENICILLIN G]
24 | 15.5 (≈ 51.6 µM) | > 50 | > 50 | 49.4 (≈ 165 µM) | > 50 | > 50 | > 50 | O=C(/C=C/c1ccc(O)c(O)c1)Nc1ccc([N+](=O)[O-])cc1
25 | 1.18 (≈ 4.38 µM) | 42.2 (≈ 157 µM) | > 50 | > 50 | > 50 | > 50 | > 50 | Cc1ccc(NC(=O)/C=C/c2ccc(O)c(O)c2)cc1
26 | 3.89 (≈ 11.6 µM) | 50 (≈ 150 µM) | > 50 | > 50 | > 50 | > 50 | > 50 | O=C(/C=C/c1ccc(O)c(O)c1)Nc1ccc(Br)cc1
27 | 7.95 (≈ 29.1 µM) | > 50 | > 50 | > 50 | > 50 | > 50 | > 50 | O=C(/C=C/c1ccc(O)c(O)c1)Nc1ccc(F)cc1
28 | 0.39 (≈ 0.805 µM) | 5.08 (≈ 10.5 µM) | 1.28 (≈ 2.64 µM) |  |  |  |  | NC[C@H]1O[C@H](O[C@H]2[C@H](O)[C@@H](O[C@H]3O[C@H](CO)[C@@H](O)[C@H](N)[C@H]3O)[C@H](N)C[C@@H]2N)[C@H](O)[C@@H](O)[C@@H]1O [KANAMYCIN]
